Experiments:
[1] = Half-life in Sprague-Dawley rat at 2 mg/kg, iv by LC-MS/MS analysis; assay type: ADME, organism-based; conditions: in vivo
[2] = Half-life in Sprague-Dawley rat at 10 mg/kg, po by LC-MS/MS analysis; assay type: ADME, organism-based; conditions: Sprague-Dawley, in vivo
Z-138 [3] = test: Induction of apoptosis in human Z138 cells assessed as early apoptotic cells at 2.0 nM incubated for 168 hrs by Annexin V-FITC/PI staining based flow cytometric analysis (reference value: 1.68 %); assay type: functional
Z-138 [4] = test: Induction of apoptosis in human Z138 cells assessed as necrotic cells at 0.4 nM incubated for 168 hrs by Annexin V-FITC/PI staining based flow cytometric analysis (reference value: 3.54 %); assay type: functional
Z-138 [5] = test: Induction of apoptosis in human Z138 cells assessed as early apoptotic cells at 10.0 nM incubated for 168 hrs by Annexin V-FITC/PI staining based flow cytometric analysis (reference value: 1.68 %); assay type: functional
Z-138 [6] = test: Cell cycle arrest in human Z138 cells assessed as increase in DNA content at 50.0 nM incubated for 168 hrs by RNase A/PI staining based flow cytometric analysis relative to control; assay type: functional
[7] = Clearance in Sprague-Dawley rat at 2 mg/kg, iv by LC-MS/MS analysis; assay type: ADME, organism-based; conditions: in vivo
Z-138 [8] = test: Induction of apoptosis in human Z138 cells assessed as early apoptotic cells at 50.0 nM incubated for 168 hrs by Annexin V-FITC/PI staining based flow cytometric analysis (reference value: 1.68 %); assay type: functional
[9] = molecular target: T1, Protein arginine N-methyltransferase 7 (Homo sapiens, UniProt Q9NVM4); test: Inhibition of PRMT7 (unknown origin)
T1 sequence (Q9NVM4 whole entry): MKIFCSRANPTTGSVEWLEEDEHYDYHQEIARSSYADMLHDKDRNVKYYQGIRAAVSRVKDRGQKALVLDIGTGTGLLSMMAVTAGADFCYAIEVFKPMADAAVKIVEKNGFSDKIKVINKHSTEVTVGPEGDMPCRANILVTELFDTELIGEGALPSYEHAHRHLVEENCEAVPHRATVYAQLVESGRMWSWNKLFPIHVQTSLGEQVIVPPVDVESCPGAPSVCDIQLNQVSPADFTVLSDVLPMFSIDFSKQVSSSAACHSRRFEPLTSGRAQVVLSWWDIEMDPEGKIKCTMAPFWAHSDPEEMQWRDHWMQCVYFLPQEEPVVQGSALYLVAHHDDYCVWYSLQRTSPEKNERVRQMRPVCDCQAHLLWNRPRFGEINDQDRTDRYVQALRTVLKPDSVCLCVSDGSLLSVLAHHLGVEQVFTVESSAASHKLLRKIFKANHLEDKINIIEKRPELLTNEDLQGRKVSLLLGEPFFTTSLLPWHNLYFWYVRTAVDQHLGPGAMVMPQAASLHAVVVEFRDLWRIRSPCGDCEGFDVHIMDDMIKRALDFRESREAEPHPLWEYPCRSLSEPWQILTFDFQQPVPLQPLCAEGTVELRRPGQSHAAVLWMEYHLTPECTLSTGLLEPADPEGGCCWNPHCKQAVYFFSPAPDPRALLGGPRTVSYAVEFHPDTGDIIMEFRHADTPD

Cytochrome P450 2B6 = Cytochrome P450 2B6 (Homo sapiens, UniProt P20813); test: Inhibition of CYP2B6 (unknown origin); assay type: ADME
Cytochrome P450 2B6, sequence (P20813 whole entry): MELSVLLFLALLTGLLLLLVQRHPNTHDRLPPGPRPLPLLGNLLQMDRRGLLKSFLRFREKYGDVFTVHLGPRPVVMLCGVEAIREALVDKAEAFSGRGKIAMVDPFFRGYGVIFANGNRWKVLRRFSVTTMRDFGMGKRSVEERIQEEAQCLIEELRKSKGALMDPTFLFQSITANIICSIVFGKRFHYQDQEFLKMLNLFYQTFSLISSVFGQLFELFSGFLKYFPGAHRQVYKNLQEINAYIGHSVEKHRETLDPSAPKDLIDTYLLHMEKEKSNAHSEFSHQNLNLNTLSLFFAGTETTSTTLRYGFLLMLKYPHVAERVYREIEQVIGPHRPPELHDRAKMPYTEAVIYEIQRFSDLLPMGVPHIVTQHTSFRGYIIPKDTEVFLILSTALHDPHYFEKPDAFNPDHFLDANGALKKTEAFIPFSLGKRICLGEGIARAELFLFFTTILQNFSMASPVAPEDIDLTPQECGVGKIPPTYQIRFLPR

[10] = Metabolic stability in monkey liver microsomes assessed as half-life at 1 uM measured upto 240 mins; assay type: ADME, Macaca mulatta, Microsome; conditions: rhesus monkey
[11] = Toxicity in Sprague-Dawley rat assessed as morphological changes in caecum at 31.25 to 125 mg/kg, po administered once a day for 14 days by H and E staining based analysis; assay type: organism-based; conditions: in vivo, 336 h, dose 31.25-125 mg/kg, time 14 day
[12] = Protein binding in dog plasma; assay type: ADME, cell-free, Canis lupus familiaris; conditions: read-out: PPB (converted)
Z-138 [13] = test: Antitumor activity against human Z138 cells xenografted in female SCID.BG nude mouse assessed as tumor growth inhibition at 25 mg/kg, po administered twice a day for 21 days relative to control; assay type: functional; conditions: Z-138, 504 h, time 21 day, read-out: TGI
[14] = Metabolic stability in rat liver microsomes assessed as half-life at 1 uM measured upto 240 mins; assay type: ADME, Microsome
[15] = Protein binding in monkey plasma; assay type: ADME, cell-free, Macaca mulatta; conditions: rhesus monkey, read-out: PPB (converted)
A549 = test: Antiproliferative activity against human A549 cells measured after 4 to 5 days by CCK-8 assay; assay type: functional, cell-based
PRMT5/MEP50 complex [16] = molecular target: T2, PRMT5/MEP50 complex (Homo sapiens, UniProt O14744); test: Binding affinity to PRMT5/MEP50 (unknown origin) assessed as dissociation constant by SPR analysis; assay type: protein-complex assay
T2 sequence (O14744 whole entry): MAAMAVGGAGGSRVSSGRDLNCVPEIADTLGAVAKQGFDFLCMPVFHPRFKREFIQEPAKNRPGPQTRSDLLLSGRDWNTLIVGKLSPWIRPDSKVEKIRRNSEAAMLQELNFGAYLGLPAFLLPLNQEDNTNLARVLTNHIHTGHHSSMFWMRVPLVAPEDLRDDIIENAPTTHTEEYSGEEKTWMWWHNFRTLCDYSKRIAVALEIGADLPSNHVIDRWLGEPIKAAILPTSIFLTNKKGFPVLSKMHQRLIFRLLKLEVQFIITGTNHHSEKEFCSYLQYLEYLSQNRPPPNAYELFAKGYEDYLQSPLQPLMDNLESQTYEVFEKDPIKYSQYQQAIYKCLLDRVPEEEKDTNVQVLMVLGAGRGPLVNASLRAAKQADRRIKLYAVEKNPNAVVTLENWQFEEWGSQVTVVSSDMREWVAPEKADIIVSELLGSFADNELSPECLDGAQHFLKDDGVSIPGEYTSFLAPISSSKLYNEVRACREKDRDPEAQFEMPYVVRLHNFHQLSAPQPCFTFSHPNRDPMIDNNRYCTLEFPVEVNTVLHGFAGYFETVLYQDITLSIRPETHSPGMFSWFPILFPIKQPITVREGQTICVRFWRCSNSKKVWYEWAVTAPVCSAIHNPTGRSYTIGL
T2 sequence (Q9BQA1 whole entry, further chain): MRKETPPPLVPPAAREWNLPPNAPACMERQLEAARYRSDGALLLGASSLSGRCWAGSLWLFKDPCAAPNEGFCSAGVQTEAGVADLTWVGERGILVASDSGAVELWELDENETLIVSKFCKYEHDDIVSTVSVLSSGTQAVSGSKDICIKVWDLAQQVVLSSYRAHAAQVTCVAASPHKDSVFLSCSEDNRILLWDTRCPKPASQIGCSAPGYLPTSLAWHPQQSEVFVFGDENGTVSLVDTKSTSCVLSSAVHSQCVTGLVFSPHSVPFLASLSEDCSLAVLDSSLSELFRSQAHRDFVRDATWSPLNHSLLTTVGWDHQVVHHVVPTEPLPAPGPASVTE

[17] = Toxicity in Sprague-Dawley rat assessed as morphological changes in bone marrow at 31.25 to 125 mg/kg, po administered once a day for 14 days by H and E staining based analysis; assay type: organism-based; conditions: in vivo, 336 h, dose 31.25-125 mg/kg, time 14 day
Cytochrome P450 2C8 = Cytochrome P450 2C8 (Homo sapiens, UniProt P10632); test: Inhibition of CYP2C8 (unknown origin); assay type: ADME
Cytochrome P450 2C8, sequence (P10632 whole entry): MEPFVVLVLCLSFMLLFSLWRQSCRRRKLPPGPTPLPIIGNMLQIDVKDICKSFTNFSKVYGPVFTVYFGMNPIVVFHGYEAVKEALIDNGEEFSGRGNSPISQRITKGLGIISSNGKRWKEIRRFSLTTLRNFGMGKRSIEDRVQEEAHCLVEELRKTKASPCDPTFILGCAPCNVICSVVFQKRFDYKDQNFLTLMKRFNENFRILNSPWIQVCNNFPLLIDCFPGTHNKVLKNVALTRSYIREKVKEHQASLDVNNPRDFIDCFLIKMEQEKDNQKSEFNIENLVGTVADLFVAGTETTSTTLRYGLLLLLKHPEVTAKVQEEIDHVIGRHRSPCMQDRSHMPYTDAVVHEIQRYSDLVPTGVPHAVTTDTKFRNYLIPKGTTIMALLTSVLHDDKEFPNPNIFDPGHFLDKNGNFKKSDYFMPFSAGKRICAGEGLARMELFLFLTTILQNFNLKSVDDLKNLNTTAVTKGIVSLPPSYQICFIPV

[18] = Metabolic stability in dog liver microsomes assessed as half-life at 1 uM measured upto 240 mins; assay type: ADME, Canis lupus familiaris, Microsome
[19] = Toxicity in Sprague-Dawley rat assessed as animal death at 31.25 to 125 mg/kg, po administered once a day for 14 days; assay type: organism-based; conditions: in vivo, 336 h, dose 31.25-125 mg/kg, time 14 day
[20] = Toxicity in Sprague-Dawley rat assessed as body weight loss at 31.25 to 125 mg/kg, po administered once a day for 14 days; assay type: organism-based; conditions: in vivo, 336 h, dose 31.25-125 mg/kg, time 14 day
[21] = molecular target: Protein arginine N-methyltransferase 5 (Homo sapiens) (UniProt O14744); test: Inhibition of PRMT5 in human Z138 cells assessed as decrease in symmetric dimethyl arginine level incubated for 48 hrs by Western blot analysis; assay type: cell-based; conditions: dose 0.005-5 µM
Protein arginine N-methyltransferase 5 (Homo sapiens), sequence (O14744 whole entry): as the sequence (O14744 whole entry) above

Z-138 [22] = test: Antitumor activity against human Z138 cells xenografted in female SCID.BG nude mouse assessed as tumor growth inhibition at 50 mg/kg, po administered twice a day for 21 days relative to control; assay type: functional; conditions: Z-138, 504 h, time 21 day, read-out: TGI
[23] = Toxicity in Sprague-Dawley rat assessed as structural changes in bone marrow at 31.25 to 125 mg/kg, po administered once a day for 14 days by H and E staining based analysis; assay type: organism-based; conditions: in vivo, 336 h, dose 31.25-125 mg/kg, time 14 day
[24] = Toxicity in Sprague-Dawley rat assessed as structural changes in spleen at 31.25 to 125 mg/kg, po administered once a day for 14 days by H and E staining based analysis; assay type: organism-based; conditions: in vivo, 336 h, dose 31.25-125 mg/kg, time 14 day
[25] = Protein binding in human plasma; assay type: ADME, cell-free; conditions: read-out: PPB (converted)
PRMT5/MEP50 complex [26] = molecular target: T2, PRMT5/MEP50 complex; test: Inhibition of recombinant N-terminal FLAG-tagged human full-length PRMT5/full length human MEP50 extracted from baculovirus expression system using [3H]-SAM as substrate preincubated for 15 mins followed by substrate addition and measured after 60 mins by multimode plate reader analysis
[27] = Toxicity in Sprague-Dawley rat assessed as morphological changes in spleen at 31.25 to 125 mg/kg, po administered once a day for 14 days by H and E staining based analysis; assay type: organism-based; conditions: in vivo, 336 h, dose 31.25-125 mg/kg, time 14 day
[28] = molecular target: Protein arginine N-methyltransferase 5 (Homo sapiens) (UniProt O14744); test: In vivo inhibition of PRMT5 in female SCID.BG nude mouse xenografted with human Z138 cells assessed as decrease in SmD3me2s level at 12.5 to 50 mg/kg, po administered twice a day for 21 days by Western blotting analysis; assay type: functional, organism-based; conditions: dose 12.5-50 mg/kg, time 21.0 day

**Q.** With `CC(=O)N1CCC(Nc2cc(C(=O)NC[C@H](O)CN3CCc4ccccc4C3)ncn2)CC1` [PEMRAMETOSTAT] as the compound, how does the half-life [1] read?
**A.** Its half-life is 18 min.

**Q.** What about the half-life [2] of the same compound?
**A.** The half-life was 36 min.

**Q.** What about the Activity (Z-138 [3]) of the same compound?
**A.** The Activity was 1.97%.

**Q.** And the Activity (Z-138 [4])?
**A.** Its Activity is 2.52%.

**Q.** And the Activity (Z-138 [5])?
**A.** Its Activity is 7.12%.

**Q.** And the Activity (Z-138 [6])?
**A.** Its Activity is 59.2%.

**Q.** And the clearance [7]?
**A.** The clearance was 56.7 mL/min/kg.

**Q.** What about the Activity (Z-138 [8]) of the same compound?
**A.** The Activity was 34.1%.

**Q.** What about the IC50 [9] of the same compound?
**A.** Its IC50 is > 10000 nM.

**Q.** What does the source list for `CC(=O)N1CC2(CC(Nc3cc4c(cn3)C3(CC3)CN(C[C@H](O)CN3CCc5ccccc5C3)C4=O)C2)C1`?
**A.** IC50 (Cytochrome P450 2B6): > 50000 nM; half-life at 1 µM [10]: 18.2 min; Activity [11]: Non-toxic; half-life [1]: 24 min; fraction unbound [12]: 0.0204; inhibition in vivo at 25 mg/kg (Z-138 [13]): 106%; half-life at 1 µM [14]: 85.6 min; fraction unbound [15]: 0.11; half-life [2]: 132 min; Activity (Z-138 [3]): 22%; Activity (Z-138 [4]): 2.41%; IC50 (A549): 13.7 nM; Kd (PRMT5/MEP50 complex [16]): 104 nM; Activity (Z-138 [5]): 54.5%; Activity (Z-138 [6]): 71.6%; Activity [17]: Non-toxic; IC50 (Cytochrome P450 2C8): > 50000 nM; half-life at 1 µM [18]: 152 min; clearance [7]: 41.7 mL/min/kg; Activity [19]: Non-toxic; Activity [20]: Non-toxic; inhibition [21]: Dose-dependent-effect; inhibition in vivo at 50 mg/kg (Z-138 [22]): 106%; Activity (Z-138 [8]): 78.2%; Activity [23]: Non-toxic; Activity [24]: Non-toxic; fraction unbound [25]: 0.106; IC50 [9]: > 10000 nM; IC50 (PRMT5/MEP50 complex [26]): 20.7 nM; Activity [27]: Non-toxic; inhibition [28]: Active; More Potent Than Gsk3326595
